# Legend:
# Experiment in all cases: Kinase profiling in a biochemical assay panel (mobility shift assays and ELISA), %-inhibition at 1 μM; selectivity entropy
# [1] = target: T1, panel of more than 300 wild-type and mutant kinases (313 kinase panel) (Homo sapiens, UniProt P00540); settings: kinase MOS; 1 μM
# T1 sequence (P00540 1-346): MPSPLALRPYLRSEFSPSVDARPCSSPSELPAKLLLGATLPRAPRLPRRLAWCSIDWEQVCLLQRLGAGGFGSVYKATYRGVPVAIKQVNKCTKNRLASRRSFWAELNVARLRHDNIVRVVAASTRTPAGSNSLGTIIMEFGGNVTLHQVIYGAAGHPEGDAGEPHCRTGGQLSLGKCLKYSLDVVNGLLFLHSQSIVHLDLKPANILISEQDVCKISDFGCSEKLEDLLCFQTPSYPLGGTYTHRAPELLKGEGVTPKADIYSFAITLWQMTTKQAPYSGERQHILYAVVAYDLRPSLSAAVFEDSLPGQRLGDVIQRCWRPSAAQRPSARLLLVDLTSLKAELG
# [2] = target: panel of more than 300 wild-type and mutant kinases (313 kinase panel) (Homo sapiens, UniProt Q9NQU5); settings: kinase PAK6; 1 μM
# [3] = target: panel of more than 300 wild-type and mutant kinases (313 kinase panel) (Homo sapiens, UniProt O60674); settings: kinase JAK2; compound at 1 μM
# Sequence of panel of more than 300 wild-type and mutant kinases (313 kinase panel) (Homo sapiens, UniProt O60674) (O60674 whole entry, change not shown): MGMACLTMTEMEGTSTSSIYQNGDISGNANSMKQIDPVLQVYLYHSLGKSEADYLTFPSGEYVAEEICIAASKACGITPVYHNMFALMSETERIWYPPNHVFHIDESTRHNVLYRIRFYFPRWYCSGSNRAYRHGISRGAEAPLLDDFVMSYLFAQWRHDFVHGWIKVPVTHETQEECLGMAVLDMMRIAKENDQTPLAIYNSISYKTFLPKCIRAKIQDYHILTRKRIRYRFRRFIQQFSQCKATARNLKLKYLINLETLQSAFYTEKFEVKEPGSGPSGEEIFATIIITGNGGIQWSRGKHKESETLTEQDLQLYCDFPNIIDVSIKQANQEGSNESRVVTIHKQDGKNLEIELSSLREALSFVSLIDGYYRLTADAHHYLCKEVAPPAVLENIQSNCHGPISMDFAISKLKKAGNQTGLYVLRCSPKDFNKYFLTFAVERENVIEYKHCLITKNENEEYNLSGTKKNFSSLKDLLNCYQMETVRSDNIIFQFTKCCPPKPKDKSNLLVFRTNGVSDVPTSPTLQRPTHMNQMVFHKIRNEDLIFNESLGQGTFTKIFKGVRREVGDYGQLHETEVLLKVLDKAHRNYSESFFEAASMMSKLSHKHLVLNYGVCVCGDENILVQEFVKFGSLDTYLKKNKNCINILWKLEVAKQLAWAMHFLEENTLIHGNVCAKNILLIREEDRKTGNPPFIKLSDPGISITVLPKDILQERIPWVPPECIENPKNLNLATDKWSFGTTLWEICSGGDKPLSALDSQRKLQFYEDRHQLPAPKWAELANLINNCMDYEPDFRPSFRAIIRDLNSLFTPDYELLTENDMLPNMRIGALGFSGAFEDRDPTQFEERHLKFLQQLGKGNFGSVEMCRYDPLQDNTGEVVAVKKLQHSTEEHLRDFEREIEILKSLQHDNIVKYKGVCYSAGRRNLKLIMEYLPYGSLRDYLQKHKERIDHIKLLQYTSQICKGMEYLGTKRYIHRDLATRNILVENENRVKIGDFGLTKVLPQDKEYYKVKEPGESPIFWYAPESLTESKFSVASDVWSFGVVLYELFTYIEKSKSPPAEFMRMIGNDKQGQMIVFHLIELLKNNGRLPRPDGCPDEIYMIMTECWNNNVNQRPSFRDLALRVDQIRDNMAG
# [4] = target: panel of more than 300 wild-type and mutant kinases (313 kinase panel) (Homo sapiens, UniProt P14616)
# [5] = target: panel of more than 300 wild-type and mutant kinases (313 kinase panel) (Homo sapiens, UniProt P80192); settings: kinase MLK1; 1 μM
# Sequence of panel of more than 300 wild-type and mutant kinases (313 kinase panel) (Homo sapiens, UniProt P80192) (P80192 whole entry, change not shown): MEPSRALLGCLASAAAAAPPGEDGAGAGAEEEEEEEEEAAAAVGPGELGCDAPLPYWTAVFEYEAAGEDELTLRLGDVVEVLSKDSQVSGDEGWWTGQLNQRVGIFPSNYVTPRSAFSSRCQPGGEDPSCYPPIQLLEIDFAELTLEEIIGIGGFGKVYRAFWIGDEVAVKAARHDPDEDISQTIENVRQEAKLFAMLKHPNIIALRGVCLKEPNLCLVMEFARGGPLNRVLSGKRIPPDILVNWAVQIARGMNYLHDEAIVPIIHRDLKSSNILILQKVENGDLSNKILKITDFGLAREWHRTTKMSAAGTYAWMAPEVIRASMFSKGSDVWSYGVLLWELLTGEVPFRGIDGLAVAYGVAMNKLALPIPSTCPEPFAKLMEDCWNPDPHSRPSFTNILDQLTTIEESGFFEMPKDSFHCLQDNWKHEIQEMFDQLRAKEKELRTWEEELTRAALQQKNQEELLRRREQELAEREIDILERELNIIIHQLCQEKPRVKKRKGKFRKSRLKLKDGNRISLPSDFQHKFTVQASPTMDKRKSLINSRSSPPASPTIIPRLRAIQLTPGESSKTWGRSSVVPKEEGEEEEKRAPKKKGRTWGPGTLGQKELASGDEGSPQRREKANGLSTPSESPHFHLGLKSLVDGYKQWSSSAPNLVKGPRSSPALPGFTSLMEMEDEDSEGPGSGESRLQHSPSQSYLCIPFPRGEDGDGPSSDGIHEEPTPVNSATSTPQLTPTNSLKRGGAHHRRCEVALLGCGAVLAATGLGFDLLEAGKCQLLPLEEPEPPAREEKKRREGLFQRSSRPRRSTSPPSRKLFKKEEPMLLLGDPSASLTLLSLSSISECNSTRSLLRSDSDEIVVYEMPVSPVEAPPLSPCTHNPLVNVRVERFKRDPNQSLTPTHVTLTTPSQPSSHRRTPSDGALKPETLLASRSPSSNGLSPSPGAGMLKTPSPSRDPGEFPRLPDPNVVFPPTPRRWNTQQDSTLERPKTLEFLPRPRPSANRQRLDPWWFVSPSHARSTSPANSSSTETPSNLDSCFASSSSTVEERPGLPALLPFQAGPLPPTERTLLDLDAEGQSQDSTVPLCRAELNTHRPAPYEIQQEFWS
# [6] = target: panel of more than 300 wild-type and mutant kinases (313 kinase panel) (Homo sapiens, UniProt P16234); settings: kinase PDGFRα; 1 μM
# [7] = target: panel of more than 300 wild-type and mutant kinases (313 kinase panel) (Homo sapiens, UniProt Q9UK32); settings: kinase RSK4; 1 μM
# Sequence of panel of more than 300 wild-type and mutant kinases (313 kinase panel) (Homo sapiens, UniProt Q9UK32) (Q9UK32 whole entry, change not shown): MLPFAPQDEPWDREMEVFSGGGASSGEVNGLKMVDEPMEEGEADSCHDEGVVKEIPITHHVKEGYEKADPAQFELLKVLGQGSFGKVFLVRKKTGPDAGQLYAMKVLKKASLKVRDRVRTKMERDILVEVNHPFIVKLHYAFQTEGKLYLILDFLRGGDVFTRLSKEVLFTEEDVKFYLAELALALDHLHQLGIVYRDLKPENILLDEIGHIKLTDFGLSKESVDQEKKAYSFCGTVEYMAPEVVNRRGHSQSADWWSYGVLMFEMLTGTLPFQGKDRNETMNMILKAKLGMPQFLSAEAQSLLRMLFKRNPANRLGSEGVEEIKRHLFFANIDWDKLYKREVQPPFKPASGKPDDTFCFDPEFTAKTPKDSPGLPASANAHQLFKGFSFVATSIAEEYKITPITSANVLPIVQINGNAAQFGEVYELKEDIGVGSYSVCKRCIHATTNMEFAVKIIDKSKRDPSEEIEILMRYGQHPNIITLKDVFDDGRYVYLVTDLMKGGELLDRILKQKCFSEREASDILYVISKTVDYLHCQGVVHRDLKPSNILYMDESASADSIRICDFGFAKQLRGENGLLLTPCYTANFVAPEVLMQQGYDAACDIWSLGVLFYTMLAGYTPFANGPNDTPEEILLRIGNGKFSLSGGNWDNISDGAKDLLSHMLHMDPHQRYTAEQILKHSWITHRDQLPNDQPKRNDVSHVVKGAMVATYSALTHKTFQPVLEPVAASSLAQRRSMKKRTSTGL
# [8] = target: panel of more than 300 wild-type and mutant kinases (313 kinase panel) (Homo sapiens, UniProt P04626); settings: kinase HER2; compound at 1 μM
# [9] = target: panel of more than 300 wild-type and mutant kinases (313 kinase panel) (Homo sapiens, UniProt Q13131); settings: kinase AMPKα1/β1/γ1; 1 μM compound
# Sequence of panel of more than 300 wild-type and mutant kinases (313 kinase panel) (Homo sapiens, UniProt Q13131) (Q13131 whole entry, change not shown): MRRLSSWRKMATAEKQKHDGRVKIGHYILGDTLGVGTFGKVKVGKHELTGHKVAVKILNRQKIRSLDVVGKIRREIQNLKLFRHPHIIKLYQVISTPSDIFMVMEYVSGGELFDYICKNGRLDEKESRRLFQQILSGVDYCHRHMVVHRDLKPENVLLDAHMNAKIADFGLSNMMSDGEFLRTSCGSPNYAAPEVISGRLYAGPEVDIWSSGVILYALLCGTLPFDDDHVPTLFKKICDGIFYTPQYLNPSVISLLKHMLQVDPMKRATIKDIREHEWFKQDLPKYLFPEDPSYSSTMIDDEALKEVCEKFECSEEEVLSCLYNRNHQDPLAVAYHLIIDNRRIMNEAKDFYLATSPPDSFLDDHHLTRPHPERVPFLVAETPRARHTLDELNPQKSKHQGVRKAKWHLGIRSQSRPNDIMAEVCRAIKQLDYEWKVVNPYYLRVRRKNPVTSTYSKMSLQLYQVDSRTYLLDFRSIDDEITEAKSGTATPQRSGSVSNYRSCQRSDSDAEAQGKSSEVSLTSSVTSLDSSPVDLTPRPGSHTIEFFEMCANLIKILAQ
# [10] = target: T2, panel of more than 300 wild-type and mutant kinases (313 kinase panel) (Homo sapiens, UniProt P29320); settings: kinase EPHA3; compound at 1 μM
# T2 sequence (P29320 21-983): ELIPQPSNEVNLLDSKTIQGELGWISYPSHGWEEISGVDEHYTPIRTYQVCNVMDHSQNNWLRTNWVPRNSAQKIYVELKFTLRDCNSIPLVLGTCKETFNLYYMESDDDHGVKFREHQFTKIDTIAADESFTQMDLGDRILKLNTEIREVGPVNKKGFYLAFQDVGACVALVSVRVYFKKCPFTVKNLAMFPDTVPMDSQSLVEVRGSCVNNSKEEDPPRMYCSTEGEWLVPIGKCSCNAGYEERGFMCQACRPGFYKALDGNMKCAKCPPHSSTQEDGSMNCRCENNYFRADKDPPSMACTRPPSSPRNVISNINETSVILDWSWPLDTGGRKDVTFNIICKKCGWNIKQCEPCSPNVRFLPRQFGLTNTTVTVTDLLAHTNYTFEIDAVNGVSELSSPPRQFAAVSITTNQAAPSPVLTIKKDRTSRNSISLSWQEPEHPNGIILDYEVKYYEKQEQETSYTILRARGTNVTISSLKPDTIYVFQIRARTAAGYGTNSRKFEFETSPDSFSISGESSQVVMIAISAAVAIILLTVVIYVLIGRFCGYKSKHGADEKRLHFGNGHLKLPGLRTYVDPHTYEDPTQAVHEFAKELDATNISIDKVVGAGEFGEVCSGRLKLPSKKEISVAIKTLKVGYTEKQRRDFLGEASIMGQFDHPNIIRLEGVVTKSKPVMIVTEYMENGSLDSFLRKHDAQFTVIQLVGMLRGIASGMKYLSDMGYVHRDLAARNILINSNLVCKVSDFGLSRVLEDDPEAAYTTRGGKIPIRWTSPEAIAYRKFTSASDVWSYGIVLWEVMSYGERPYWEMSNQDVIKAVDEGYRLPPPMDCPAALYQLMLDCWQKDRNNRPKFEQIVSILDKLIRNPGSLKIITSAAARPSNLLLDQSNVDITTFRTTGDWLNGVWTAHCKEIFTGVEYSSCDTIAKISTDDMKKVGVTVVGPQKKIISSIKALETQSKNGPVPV
# [11] = target: panel of more than 300 wild-type and mutant kinases (313 kinase panel) (Homo sapiens, UniProt P09769)
# [12] = target: panel of more than 300 wild-type and mutant kinases (313 kinase panel) (Homo sapiens, UniProt O94804); settings: kinase LOK; compound at 1 μM
# Sequence of panel of more than 300 wild-type and mutant kinases (313 kinase panel) (Homo sapiens, UniProt O94804) (O94804 whole entry, change not shown): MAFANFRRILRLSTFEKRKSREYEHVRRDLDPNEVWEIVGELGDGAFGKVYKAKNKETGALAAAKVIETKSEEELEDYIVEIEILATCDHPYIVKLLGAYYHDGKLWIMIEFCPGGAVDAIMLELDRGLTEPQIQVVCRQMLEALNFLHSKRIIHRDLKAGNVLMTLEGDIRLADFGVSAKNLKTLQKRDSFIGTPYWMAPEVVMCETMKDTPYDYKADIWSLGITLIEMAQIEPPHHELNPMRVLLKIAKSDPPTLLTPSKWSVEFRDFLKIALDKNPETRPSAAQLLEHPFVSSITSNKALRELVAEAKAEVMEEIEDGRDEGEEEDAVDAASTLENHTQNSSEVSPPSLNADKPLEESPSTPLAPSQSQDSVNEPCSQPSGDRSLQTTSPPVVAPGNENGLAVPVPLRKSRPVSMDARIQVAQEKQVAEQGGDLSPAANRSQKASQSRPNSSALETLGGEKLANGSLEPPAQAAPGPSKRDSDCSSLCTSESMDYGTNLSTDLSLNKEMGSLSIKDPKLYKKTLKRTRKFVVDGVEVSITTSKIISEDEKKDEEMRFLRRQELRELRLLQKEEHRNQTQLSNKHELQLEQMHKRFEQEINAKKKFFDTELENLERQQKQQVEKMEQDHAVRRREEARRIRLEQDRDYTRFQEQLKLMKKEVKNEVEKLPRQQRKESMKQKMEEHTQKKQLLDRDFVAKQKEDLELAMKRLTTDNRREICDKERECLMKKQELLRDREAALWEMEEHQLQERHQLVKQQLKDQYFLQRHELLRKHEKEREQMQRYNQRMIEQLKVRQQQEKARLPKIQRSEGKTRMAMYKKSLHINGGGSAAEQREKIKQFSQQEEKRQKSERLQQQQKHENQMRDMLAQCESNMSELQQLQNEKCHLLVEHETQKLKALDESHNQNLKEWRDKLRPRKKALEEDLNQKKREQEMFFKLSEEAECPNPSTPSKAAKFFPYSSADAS
# [13] = target: panel of more than 300 wild-type and mutant kinases (313 kinase panel) (Homo sapiens, UniProt P29317); settings: kinase EPHA2; compound at 1 μM
Structure (SMILES),%-inhibition of MOS [1] [%],%-inhibition of PAK6 [2] [%],%-inhibition of JAK2 [3] [%],"%-inhibition of IRR ([4]; kinase IRR, compound at 1 μM) [%]",%-inhibition of MLK1 [5] [%],%-inhibition of PDGFRα [6] [%],%-inhibition of RSK4 [7] [%],%-inhibition of HER2 [8] [%],"%-inhibition, AMPKα1/β1/γ1 [9] [%]",%-inhibition of EPHA3 [10] [%],"%-inhibition of FGR ([11]; kinase FGR, compound at 1 μM) [%]",%-inhibition of LOK [12] [%],%-inhibition of EPHA2 [13] [%],%-inhibition of FGR ([11]; 1 µM) [%],%-inhibition of IRR ([4]; 1 µM) [%]
CN(C)C/C=C/C(=O)Nc1cc2c(Nc3ccc(F)c(Cl)c3)ncnc2cc1O[C@H]1CCOC1 [afatinib],-2,–,–,–,–,–,–,–,–,–,–,–,–,–,–
COc1cc(Nc2c(C#N)cnc3cc(OCCCN4CCN(C)CC4)c(OC)cc23)c(Cl)cc1Cl [bosutinib],44,-0.35,64,57,93,77,43,88,9,67,92,–,–,–,–
C[C@@H](Oc1cc(-c2cnn(C3CCNCC3)c2)cnc1N)c1c(Cl)ccc(F)c1Cl [crizotinib],1.25,3,98,–,2.82,49,-1.58,-0.714,16,19,70,98,–,–,–
CC(C)(C)c1nc(-c2cccc(NS(=O)(=O)c3c(F)cccc3F)c2F)c(-c2ccnc(N)n2)s1 [dabrafenib],-12,9,–,10,–,63,2.2,50,–,18,82,–,7,–,–
Cc1nc(Nc2ncc(C(=O)Nc3c(C)cccc3Cl)s2)cc(N2CCN(CCO)CC2)n1 [dasatinib],–,–,–,-16,–,–,–,–,–,–,–,–,–,–,–
CO[C@H]1C[C@@H]2CC[C@@H](C)[C@@](O)(O2)C(=O)C(=O)N2CCCC[C@H]2C(=O)O[C@H]([C@H](C)C[C@@H]2CC[C@@H](OCCO)[C@H](OC)C2)CC(=O)[C@H](C)/C=C(\C)[C@@H](O)[C@@H](OC)C(=O)[C@H](C)C[C@H](C)/C=C/C=C/C=C/1C [everolimus],3.3,-1.22,–,0.808,5,1.15,-8,-2.5,-6,-20,1,-9,-4,–,–
Cc1ccc(Nc2nccc(N(C)c3ccc4c(C)n(C)nc4c3)n2)cc1S(N)(=O)=O [pazopanib],-12,5.54,50,16,90,–,10,1.07,-0.748,10,86,70,15,–,–
Cc1ccc(C(=O)Nc2ccc(CN3CCN(C)CC3)c(C(F)(F)F)c2)cc1C#Cc1cnc2cccnn12 [ponatinib],1.59,-3,92,–,29,103,13,88,46,102,101,–,102,–,–
N#CC[C@H](C1CCCC1)n1cc(-c2ncnc3[nH]ccc23)cn1 [ruxolitinib],8,3,–,0.404,53,35,3.16,-3.75,2.17,2,–,3.51,28,10,–
CCN(CC)CCNC(=O)c1c(C)[nH]c(/C=C2\C(=O)Nc3ccc(F)cc32)c1C [sunitinib],–,–,–,–,–,–,–,–,–,–,–,92,–,–,–
CO[C@H]1C[C@@H]2CC[C@@H](C)[C@@](O)(O2)C(=O)C(=O)N2CCCC[C@H]2C(=O)O[C@H]([C@H](C)C[C@@H]2CC[C@@H](OC(=O)C(C)(CO)CO)[C@H](OC)C2)CC(=O)[C@H](C)/C=C(\C)[C@@H](O)[C@@H](OC)C(=O)[C@H](C)C[C@H](C)/C=C/C=C/C=C/1C [temsirolimus],-1.43,-6.47,–,-13,7.48,3.45,-6,-0.179,-4.34,-21,-3,-5,-5.58,–,–
CC(=O)Nc1cccc(-n2c(=O)n(C3CC3)c(=O)c3c(Nc4ccc(I)cc4F)n(C)c(=O)c(C)c32)c1 [trametinib],42,8,–,–,16,4.53,0.208,-5.36,-12,-6,-9,12,-8.53,–,1.35

# From paper PMC3961306, “Comparison of the Cancer Gene Targeting and Biochemical Selectivities of All Targeted Kinase Inhibitors Approved for Clinical Use” (PLoS ONE, 2014)
